Here are results for 2 compounds from patent US20260083767A1, “SOLID DOSAGE FORM OF A SMALL MOLECULE ANTIVIRAL AND USES THEREOF” (Merck Sharp & Dohme LLC, priority 2022, published 2026).

For data set [1] the following is noted: species not stated; cited from earlier work.
Data set [2] in a line: Aqueous solubility and wettability of Compound A. Type of data set: physicochemical. The source says:
As the levels of Compound A increases in the formulation, the flow properties of the pre-roller compaction powder blend worsens due to the cohesive nature of the material. […] As the levels of Compound A increases in the formulation, the property of the powder blend is dominated by the properties of Compound A, resulting in poor wettability, dispersibility and uniformity in water. Accordingly, the proportion of Compound A in the formulations having desirable properties is limited.

The conditions of data set [3]: non-human primates; cited from earlier work.

Where two headings read alike, the source gives them in different places.

As to `CC(C)C(=O)OC[C@H]1O[C@@H](n2ccc(NO)nc2=O)[C@H](O)[C@@H]1O` [Compound A, {(2R,3S,4R,5R)-3,4-dihydroxy-5-[4-(hydroxyimino)-2-oxo-3,4-dihydropyrimidin-1 (2H)-yl]oxolan-2-yl}methyl 2-methylpropanoate], the oral bioavailability result in data set [1] is given as “orally bioavailable”. Besides, the aqueous solubility result in data set [2] was “good”. Moreover, the “wettability in aqueous media” value in data set [2] (aqueous media) is listed as “poor”.

With `O=c1nc(NO)ccn1[C@@H]1O[C@H](CO)[C@@H](O)[C@H]1O` [NHC, 1-((2R,3R,4S,5R)-3,4-dihydroxy-5-(hydroxymethyl)tetrahydrofuran-2-yl)-4-(hydroxyamino)pyrimidin-2 (1H)-one], in data set [3], the oral bioavailability entry is recorded as “limited”.
